# Assay: Removal (oxidation) of Carbamazepine (CBZ) by ferrate with or without amino acids, HPLC
# Conditions: [ferrate]=100.0 μM
# Description: (Experimental conditions: [CBZ]=5.0 μM, [ferrate]=100.0 μM, [amino acid]=100.0 μM, pH 9.0 (10.0 mM borate buffer), reaction time=1 min).
# After certain reaction time, a 20.0 μL NH2OH solution (1 M, [NH2OH]: [ferrate]=10.0) was added to quench the reactions. Samples were transferred into high performance liquid chromatography (HPLC) vials and subsequently analyzed using the HPLC method. Each treatment was performed with triplicates and the mean removal values were reported.
# Preliminary experiments were conducted to see the influence of amino acids (100.0 μM) on removal of CBZ (5.0 μM) by ferrate (100.0 μM) at pH 9.0 (10.0 mM borate buffer) after 1 min of oxidation. In these experiments, the solution of selected amino acids (FIG. 1) was mixed with CBZ, followed by addition of ferrate.
Compound,"removal of CBZ (ferrate only (without proline), [CBZ]=5.0 μM, pH 9.0 (10.0 mM borate buffer), 80 min) [%]","oxidation of CBZ (molar ratio of proline to ferrate 1.0, within 90 s, pH 9.0) [%]"
[O]=[Fe](=[O])([O-])[O-] [ferrate],70,–
O=C(O)[C@@H]1CCCN1 [proline],–,100

# From patent publication US12635693B2, “Activated ferrate compositions and methods” (THE TEXAS A&M UNIVERSITY SYSTEM, priority 2020, dated 2026)
